# Test results from ChEMBL document CHEMBL5291721, “A preclinical secondary pharmacology resource illuminates target-adverse drug reaction associations of marketed drugs” (Nat Commun, 2023).
# Experiments:
# [1] = target: T1, Alpha-2A adrenergic receptor (Homo sapiens, UniProt P08913)
# T1 sequence (P08913 whole entry): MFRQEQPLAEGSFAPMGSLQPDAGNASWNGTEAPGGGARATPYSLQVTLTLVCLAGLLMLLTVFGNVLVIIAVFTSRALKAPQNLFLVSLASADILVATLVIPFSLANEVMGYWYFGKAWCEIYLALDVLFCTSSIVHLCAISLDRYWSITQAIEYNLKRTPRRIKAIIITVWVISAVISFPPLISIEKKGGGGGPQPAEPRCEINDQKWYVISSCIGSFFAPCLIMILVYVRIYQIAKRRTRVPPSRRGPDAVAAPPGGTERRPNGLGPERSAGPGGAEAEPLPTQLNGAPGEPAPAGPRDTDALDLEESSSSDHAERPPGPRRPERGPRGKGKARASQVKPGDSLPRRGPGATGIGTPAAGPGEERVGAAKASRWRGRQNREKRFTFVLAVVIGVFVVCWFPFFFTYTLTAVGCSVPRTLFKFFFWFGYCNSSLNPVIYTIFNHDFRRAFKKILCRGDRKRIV
# [2] = target: T2, B2 bradykinin receptor (Homo sapiens, UniProt P30411)
# T2 sequence (P30411 whole entry): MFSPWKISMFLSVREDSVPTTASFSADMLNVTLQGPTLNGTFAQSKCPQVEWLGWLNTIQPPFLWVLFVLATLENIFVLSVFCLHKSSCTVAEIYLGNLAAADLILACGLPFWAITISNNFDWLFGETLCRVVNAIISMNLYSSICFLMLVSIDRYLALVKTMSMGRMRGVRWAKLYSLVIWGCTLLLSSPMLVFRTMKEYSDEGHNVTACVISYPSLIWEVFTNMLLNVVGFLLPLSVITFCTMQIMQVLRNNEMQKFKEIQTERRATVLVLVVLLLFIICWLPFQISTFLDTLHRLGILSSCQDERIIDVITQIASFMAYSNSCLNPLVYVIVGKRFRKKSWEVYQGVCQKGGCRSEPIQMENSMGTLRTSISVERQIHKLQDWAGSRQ
# [3] = target: Cannabinoid receptor 1 (Homo sapiens, UniProt P21554)
# [4] = target: D(1A) dopamine receptor (Homo sapiens, UniProt P21728)
# [5] = target: T3, Endothelin-1 receptor (Homo sapiens, UniProt P25101)
# T3 sequence (P25101 whole entry): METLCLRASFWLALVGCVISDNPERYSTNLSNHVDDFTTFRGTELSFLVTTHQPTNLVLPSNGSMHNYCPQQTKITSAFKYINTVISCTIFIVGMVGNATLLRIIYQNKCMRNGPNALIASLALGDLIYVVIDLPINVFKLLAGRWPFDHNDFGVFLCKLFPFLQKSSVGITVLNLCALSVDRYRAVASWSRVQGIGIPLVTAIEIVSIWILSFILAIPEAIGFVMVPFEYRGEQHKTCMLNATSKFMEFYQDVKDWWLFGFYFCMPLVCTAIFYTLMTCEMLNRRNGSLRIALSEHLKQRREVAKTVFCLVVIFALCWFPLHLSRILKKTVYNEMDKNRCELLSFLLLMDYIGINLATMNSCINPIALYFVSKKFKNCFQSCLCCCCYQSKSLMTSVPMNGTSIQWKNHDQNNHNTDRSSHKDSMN
# [6] = target: Histamine H2 receptor (Homo sapiens, UniProt P25021); type: functional, cell-based
# [7] = target: T4, 5-hydroxytryptamine receptor 1A (Homo sapiens, UniProt P08908)
# T4 sequence (P08908 whole entry): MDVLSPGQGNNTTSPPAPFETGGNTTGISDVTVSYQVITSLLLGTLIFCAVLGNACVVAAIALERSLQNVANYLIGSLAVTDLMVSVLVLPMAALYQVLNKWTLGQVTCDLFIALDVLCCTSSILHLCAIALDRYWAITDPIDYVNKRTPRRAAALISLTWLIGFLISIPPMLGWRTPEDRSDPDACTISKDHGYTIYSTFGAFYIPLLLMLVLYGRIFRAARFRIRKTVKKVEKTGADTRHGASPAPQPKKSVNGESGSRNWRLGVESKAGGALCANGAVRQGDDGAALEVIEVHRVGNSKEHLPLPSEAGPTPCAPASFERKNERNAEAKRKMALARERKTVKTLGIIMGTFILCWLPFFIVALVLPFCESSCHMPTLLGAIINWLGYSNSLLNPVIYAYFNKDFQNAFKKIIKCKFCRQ
# [8] = target: 5-hydroxytryptamine receptor 2B (Homo sapiens, UniProt P41595); type: functional, cell-based
# [9] = target: Vascular endothelial growth factor receptor 2 (Homo sapiens, UniProt P35968); type: functional
# [10] = target: Prostaglandin G/H synthase 1 (Homo sapiens, UniProt P23219); type: functional
# Note: assay procedure not described here.
# Prostaglandin G/H synthase 1, sequence (P23219 whole entry): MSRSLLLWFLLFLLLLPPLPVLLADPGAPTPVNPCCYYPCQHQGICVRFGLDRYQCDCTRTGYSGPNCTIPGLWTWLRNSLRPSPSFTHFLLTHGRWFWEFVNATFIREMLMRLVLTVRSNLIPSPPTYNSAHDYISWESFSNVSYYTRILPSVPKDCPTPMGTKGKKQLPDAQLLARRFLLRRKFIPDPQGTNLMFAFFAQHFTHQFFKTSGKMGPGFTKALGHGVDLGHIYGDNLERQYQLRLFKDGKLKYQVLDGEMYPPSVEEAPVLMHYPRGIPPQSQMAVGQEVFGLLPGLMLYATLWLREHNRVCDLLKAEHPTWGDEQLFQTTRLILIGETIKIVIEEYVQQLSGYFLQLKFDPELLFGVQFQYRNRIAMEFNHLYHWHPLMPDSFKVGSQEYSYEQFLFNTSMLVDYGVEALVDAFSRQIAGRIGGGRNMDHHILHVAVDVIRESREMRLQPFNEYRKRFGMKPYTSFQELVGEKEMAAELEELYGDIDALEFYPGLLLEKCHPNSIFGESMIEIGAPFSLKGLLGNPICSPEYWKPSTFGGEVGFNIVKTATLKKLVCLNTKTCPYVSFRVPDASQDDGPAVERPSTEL
# Histamine H2 receptor, sequence (P25021 whole entry): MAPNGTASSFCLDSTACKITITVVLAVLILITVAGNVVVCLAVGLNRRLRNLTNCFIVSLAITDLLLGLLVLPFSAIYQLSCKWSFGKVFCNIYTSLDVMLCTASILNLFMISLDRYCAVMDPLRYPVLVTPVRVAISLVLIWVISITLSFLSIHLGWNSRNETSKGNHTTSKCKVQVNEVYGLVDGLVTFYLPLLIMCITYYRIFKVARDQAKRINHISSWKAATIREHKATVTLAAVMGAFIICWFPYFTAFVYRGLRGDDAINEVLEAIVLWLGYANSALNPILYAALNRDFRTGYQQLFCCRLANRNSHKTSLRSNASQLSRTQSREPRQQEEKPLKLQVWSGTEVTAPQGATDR
# D(1A) dopamine receptor, sequence (P21728 whole entry): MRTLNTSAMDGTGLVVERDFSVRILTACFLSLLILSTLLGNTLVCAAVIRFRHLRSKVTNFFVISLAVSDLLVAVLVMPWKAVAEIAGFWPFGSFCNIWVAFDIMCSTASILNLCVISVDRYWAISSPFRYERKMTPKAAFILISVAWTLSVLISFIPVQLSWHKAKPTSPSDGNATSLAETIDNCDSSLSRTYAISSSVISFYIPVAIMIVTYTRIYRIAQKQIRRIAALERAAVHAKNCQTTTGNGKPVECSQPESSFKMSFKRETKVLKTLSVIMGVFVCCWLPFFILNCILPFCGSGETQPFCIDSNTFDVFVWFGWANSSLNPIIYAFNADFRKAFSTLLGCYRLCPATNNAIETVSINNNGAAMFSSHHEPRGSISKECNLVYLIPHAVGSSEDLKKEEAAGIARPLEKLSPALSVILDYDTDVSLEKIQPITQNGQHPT
# Cannabinoid receptor 1, sequence (P21554 whole entry): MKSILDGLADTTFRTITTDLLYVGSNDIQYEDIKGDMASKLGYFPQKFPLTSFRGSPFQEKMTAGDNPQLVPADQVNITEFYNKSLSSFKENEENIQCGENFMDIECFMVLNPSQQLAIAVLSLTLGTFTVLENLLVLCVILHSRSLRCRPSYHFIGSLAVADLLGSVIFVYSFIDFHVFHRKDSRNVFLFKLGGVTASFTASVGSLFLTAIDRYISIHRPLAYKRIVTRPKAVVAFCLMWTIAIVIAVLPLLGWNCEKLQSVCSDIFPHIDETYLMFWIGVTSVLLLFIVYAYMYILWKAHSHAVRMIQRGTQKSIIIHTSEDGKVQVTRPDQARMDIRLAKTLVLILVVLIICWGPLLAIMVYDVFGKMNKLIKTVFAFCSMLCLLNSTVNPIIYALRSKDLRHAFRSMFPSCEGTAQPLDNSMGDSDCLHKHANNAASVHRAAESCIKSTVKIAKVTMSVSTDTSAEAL
# Vascular endothelial growth factor receptor 2, sequence (P35968 whole entry): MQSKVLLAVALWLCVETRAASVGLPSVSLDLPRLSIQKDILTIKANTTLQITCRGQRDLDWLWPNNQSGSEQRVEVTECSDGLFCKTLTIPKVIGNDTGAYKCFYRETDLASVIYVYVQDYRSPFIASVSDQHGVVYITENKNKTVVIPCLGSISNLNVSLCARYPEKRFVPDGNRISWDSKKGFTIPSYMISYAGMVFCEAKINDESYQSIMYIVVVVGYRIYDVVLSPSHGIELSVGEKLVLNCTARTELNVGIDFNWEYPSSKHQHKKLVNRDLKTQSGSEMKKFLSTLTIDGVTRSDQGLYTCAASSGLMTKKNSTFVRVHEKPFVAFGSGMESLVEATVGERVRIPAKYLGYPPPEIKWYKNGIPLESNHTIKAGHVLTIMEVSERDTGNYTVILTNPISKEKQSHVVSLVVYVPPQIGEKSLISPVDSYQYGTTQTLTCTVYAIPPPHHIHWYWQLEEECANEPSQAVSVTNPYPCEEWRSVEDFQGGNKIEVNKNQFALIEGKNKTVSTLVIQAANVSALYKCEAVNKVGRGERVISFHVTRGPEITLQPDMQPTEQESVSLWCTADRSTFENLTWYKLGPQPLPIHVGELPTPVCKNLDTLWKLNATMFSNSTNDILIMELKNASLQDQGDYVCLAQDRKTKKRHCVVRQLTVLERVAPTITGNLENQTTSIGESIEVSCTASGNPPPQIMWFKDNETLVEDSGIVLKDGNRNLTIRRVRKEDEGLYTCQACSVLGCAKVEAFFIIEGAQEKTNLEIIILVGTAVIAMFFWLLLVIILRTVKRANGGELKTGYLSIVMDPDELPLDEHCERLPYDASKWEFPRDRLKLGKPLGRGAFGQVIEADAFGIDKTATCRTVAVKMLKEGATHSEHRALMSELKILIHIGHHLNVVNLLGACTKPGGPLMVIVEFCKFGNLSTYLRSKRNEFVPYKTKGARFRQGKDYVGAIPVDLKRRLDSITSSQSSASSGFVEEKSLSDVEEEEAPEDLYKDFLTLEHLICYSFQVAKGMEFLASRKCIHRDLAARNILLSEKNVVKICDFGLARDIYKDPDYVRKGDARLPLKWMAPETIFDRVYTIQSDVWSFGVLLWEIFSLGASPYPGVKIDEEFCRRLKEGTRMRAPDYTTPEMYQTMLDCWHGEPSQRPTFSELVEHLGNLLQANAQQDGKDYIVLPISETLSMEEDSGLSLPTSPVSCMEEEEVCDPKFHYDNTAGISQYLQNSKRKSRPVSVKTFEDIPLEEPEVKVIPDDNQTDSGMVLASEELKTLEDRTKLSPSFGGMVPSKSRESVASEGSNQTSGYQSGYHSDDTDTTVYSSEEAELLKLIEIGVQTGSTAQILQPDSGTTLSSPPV
# 5-hydroxytryptamine receptor 2B, sequence (P41595 whole entry): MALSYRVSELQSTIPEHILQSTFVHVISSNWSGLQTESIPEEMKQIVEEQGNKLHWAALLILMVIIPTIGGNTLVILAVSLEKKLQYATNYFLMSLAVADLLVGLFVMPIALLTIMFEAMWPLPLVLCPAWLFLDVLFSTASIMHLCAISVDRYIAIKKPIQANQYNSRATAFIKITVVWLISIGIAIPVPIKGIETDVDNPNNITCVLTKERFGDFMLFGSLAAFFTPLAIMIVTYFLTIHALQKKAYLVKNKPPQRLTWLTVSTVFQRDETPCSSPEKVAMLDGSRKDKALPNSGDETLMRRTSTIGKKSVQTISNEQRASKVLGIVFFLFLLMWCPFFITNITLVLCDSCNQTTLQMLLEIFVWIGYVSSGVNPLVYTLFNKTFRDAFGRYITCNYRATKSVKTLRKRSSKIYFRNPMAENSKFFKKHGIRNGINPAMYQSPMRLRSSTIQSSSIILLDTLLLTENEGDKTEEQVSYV
SMILES,AC50 [1] [µM],AC50 [2] [µM],AC50 [3] [µM],AC50 [4] [µM],AC50 [5] [µM],AC50 [6] [µM],AC50 [7] [µM],AC50 [8] [µM],AC50 [9] [µM],AC50 [10] [µM]
Nc1nc(N)c2nc(-c3ccccc3)c(N)nc2n1,> 30,> 30,> 30,> 30,> 30,> 30,> 30,> 30,> 30,> 30
Oc1ncnc2[nH]ncc12 [ALLOPURINOL],> 30,> 30,> 10,> 30,> 30,> 10,> 30,> 30,> 30,> 30
CN(CCOc1ccc(NS(C)(=O)=O)cc1)CCc1ccc(NS(C)(=O)=O)cc1 [DOFETILIDE],> 30,> 30,> 10,> 30,> 30,> 30,> 30,> 30,> 30,> 30
COc1cc2c(cc1OC)C(=O)C(CC1CCN(Cc3ccccc3)CC1)C2 (stereo unspecified) [DONEPEZIL],15.9,> 30,> 10,> 30,> 30,> 10,–,–,> 30,> 30
O=C1[C@H](CC[C@H](O)c2ccc(F)cc2)[C@@H](c2ccc(O)cc2)N1c1ccc(F)cc1 [EZETIMIBE],> 30,–,–,29.4,–,–,> 30,> 30,> 30,6.72
O=C(COc1ccc(Cl)cc1)N1CCN(Cc2ccc3c(c2)OCO3)CC1 [FIPEXIDE],11.1,–,–,> 30,–,–,> 30,> 30,> 30,> 30
Cc1c(-c2ccccc2)oc2c(C(=O)OCCN3CCCCC3)cccc2c1=O [FLAVOXATE],13.9,–,–,> 30,–,–,3.11,> 30,> 30,> 30
CCC(=O)c1c(O)cc(O)cc1O [FLOPROPIONE],> 30,–,–,> 30,–,–,> 30,> 30,> 30,> 30
CC1(C)O[C@@H]2C[C@H]3[C@@H]4C[C@H](F)C5=CC(=O)CC[C@]5(C)[C@H]4[C@@H](O)C[C@]3(C)[C@]2(C(=O)CO)O1 [FLURANDRENOLIDE],> 30,–,–,> 30,–,–,> 30,> 30,> 30,> 30
C#C[C@]1(O)CC[C@H]2[C@@H]3CCC4=CC(=O)CC[C@@H]4[C@H]3CC[C@@]21CC [LEVONORGESTREL],> 30,–,–,> 30,–,–,> 30,> 30,> 30,> 30
OC[C@@H](O)[C@@H](O)[C@H](O)[C@H](O)CO [MANNITOL],> 30,–,–,> 30,–,–,> 30,> 30,> 30,> 30
CN1CCCC(CN2c3ccccc3Sc3ccccc32)C1 (stereo unspecified) [MEPAZINE],8.25,–,–,9.78,–,–,> 30,> 30,> 30,> 30
Sc1ncnc2nc[nH]c12 [MERCAPTOPURINE ANHYDROUS],> 30,–,–,> 30,–,–,> 30,> 30,> 30,14.6
C[N+]1(C)[C@@H]2C[C@@H](OC(=O)[C@H](CO)c3ccccc3)C[C@H]1[C@@H]1O[C@@H]12 [METHSCOPOLAMINE],> 30,–,–,> 30,–,–,> 30,> 30,> 30,> 30
CC(=O)Oc1c(C)cc(OCC(O)CNC(C)C)c(C)c1C (stereo unspecified) [METIPRANOLOL],> 30,–,–,> 30,–,–,> 30,> 30,> 30,> 30
O=C1CC[C@@]2(O)[C@H]3Cc4ccc(O)c5c4[C@@]2(CCN3CC2CC2)[C@H]1O5 [NALTREXONE],> 30,–,–,> 30,–,–,> 30,> 30,> 30,> 30
CC(N/C(=N\C#N)Nc1ccncc1)C(C)(C)C (stereo unspecified) [PINACIDIL ANHYDROUS],> 30,–,–,> 30,–,–,> 30,> 30,> 30,> 30
CCc1ccc(CCOc2ccc(CC3SC(=O)NC3=O)cc2)nc1 (stereo unspecified) [PIOGLITAZONE],> 30,> 30,–,> 30,15.9,> 10,> 30,> 30,> 30,> 30
CC(C(=O)O)c1ccc(N2CC=CC2)c(Cl)c1 (stereo unspecified) [PIRPROFEN],> 30,> 30,> 10,> 30,> 30,> 10,> 30,> 30,> 30,0.0325
CC(O)CO (stereo unspecified) [PROPYLENE GLYCOL],> 30,–,–,> 30,–,–,> 30,> 30,> 30,> 30
CN(C)C(=O)Oc1ccc[n+](C)c1 [PYRIDOSTIGMINE],> 30,–,–,> 30,–,–,> 30,> 30,> 30,> 30
CC(C)OC(=O)[C@H](C)N[P@](=O)(OC[C@H]1O[C@@H](n2ccc(=O)[nH]c2=O)[C@](C)(F)[C@@H]1O)Oc1ccccc1 [SOFOSBUVIR],> 30,–,–,> 30,–,–,> 30,> 30,> 30,> 30
Cc1ccc(O)c2ncccc12 [TILIQUINOL],> 30,–,–,> 30,–,–,> 30,> 30,> 30,> 30
CC(=O)OC[C@H]1O[C@@H](n2ccc(=O)[nH]c2=O)[C@H](OC(C)=O)[C@@H]1OC(C)=O [URIDINE TRIACETATE],> 30,–,–,> 30,–,–,> 30,> 30,> 30,> 30
CCOC(=O)N[C@@H]1CC[C@@H]2[C@@H](C1)C[C@H]1C(=O)O[C@H](C)[C@H]1[C@H]2/C=C/c1ccc(-c2cccc(F)c2)cn1 [VORAPAXAR],> 30,–,–,> 30,–,–,> 30,> 30,> 30,> 30
